In one assay the target is T1, peanut agglutinin (PNA) (Arachis hypogaea, UniProt P02872).
T1 construct: native commercial plant lectin (Vector Laboratories), in solution
T1 sequence (P02872 24-273): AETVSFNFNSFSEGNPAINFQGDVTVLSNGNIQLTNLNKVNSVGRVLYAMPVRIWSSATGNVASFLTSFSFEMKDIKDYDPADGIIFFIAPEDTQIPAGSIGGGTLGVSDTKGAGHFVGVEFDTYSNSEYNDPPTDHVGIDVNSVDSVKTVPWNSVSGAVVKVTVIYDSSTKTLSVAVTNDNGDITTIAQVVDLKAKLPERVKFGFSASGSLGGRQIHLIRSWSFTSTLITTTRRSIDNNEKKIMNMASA
The assay is described as follows: QCM biosensor frequency shift (Attana Cell-A200). The assay is classed as binding. The settings on record: sugar photochemically immobilised on PFPA-polydopamine sensor; lectin 100 ug/mL; 10 mM PBS pH 7.4; BSA-blocked.

The next assay has as its target T2, soybean agglutinin (SBA) (Glycine max, UniProt P05046).
T2 construct: gene LE1; native commercial plant lectin (Vector Laboratories), in solution
The assay is described as follows: QCM biosensor frequency shift (Attana Cell-A200). The assay is classed as binding.

The structures appear in SMILES notation.

T2 sequence (P05046 33-285): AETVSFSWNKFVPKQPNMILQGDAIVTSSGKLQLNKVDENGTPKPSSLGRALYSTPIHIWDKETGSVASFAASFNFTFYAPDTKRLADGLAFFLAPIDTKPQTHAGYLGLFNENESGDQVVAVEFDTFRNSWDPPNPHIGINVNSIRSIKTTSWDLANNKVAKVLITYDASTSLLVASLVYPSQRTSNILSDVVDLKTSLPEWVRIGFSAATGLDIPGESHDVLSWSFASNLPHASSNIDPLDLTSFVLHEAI

Turning to `OC[C@H]1OC(O)[C@H](O)[C@@H](O)[C@H]1O` (some centres unmarked) [galactose], the “QCM biosensor frequency shift (Attana Cell-A200)” value was “both SBA and PNA can bind to galactose, but the binding strengths are different” on peanut agglutinin (PNA); “SBA has the highest binding with galactose, followed by PNA” at soybean agglutinin (SBA).

The values above are taken from paper PMC6631999, “A Universal Photochemical Method to Prepare Carbohydrate Sensors Based on Perfluorophenylazide Modified Polydopamine for Study of Carbohydrate-Lectin Interactions by QCM Biosensor” (Polymers, 2019).
